Assay results from patent US4820834A, “Benzodiazepine analogs” (priority 1987, dated 1989).
pIC50: −log10 of the molar value. Like-named read-outs stand apart in the source and are kept apart here.

Assays:
[1] = biological target: T1, CCK receptor (brain, cerebral cortex) (Cavia porcellus, UniProt H0VZC5); experiment: biochemical; assay type: binding, Male Hartley guinea pigs; conditions: guinea pig cerebral cortex, ^125 I-CCK-33, 25° C., 2 hours
T1 construct: Cerebral cortex was dissected and used as a receptor source; from tissue; host or cells: guinea pig cerebral cortex membranes (male Hartley)
T1 sequence (H0VZC5 1-426): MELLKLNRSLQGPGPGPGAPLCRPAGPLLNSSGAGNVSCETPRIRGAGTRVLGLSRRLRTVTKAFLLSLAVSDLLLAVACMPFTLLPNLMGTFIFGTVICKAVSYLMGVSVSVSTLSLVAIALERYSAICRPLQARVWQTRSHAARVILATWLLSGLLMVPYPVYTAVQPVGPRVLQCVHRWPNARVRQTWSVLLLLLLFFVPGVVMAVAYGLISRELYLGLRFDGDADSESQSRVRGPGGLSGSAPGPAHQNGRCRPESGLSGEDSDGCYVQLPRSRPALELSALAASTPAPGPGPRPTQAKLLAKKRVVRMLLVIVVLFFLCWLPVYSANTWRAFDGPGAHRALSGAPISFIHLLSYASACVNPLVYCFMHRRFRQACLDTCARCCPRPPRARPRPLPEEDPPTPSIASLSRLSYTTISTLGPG
Method: 2. CCK Recepto Binding (Brain)
CCK-33 was radiolabeled and the binding was Performed according to the description for the Pancreas method with modifications according to Saito et al., J. Neurochem.
Cerebral cortex was dissected and used as a receptor source. Each gram of fresh guinea pig brain tissue was homogenized in 10 ml of Tris/Trizma buffer with a Brinkman polytron PT-10. The homogenates were centrifuged at 42,000 g for 15 minutes. Pellets were resuspended in Tris Buffer, centrifuged as above and resuspended in 200 volumes of binding assay buffer (10 mM N-2-hydroxyethyl-piperazine-N'-2-ethane sulfonic acid (HEPES), 5 mM MgCl2, 0.25 mg/ml bacitracin, 1 mM ethylene glycol-bis-(β-aminoethylether-N,N'-tetraacetic acid) (EGTA), and 0.4% bovine serum albumin (BSA)). […] All assays were run in duplicate or triplicate. The reaction mixtures were incubated at 25° C. for 2 hours and centrifuged in a Beckman Microfuge (4 minutes) immediately after adding 1 ml of ice-cold incubation buffer. The supernatant was aspirated and discarded, pellets were counted with a Beckman gamma 5000.

[2] = biological target: T2, Gastrin receptor (gastric glands) (Cavia porcellus, UniProt H0VZC5); experiment: Gastrin Receptor Binding in Guinea Pig Gastric Glands; design: species or system guinea pig (male Hartley); conditions: 25° C., 30 minutes
T2 construct: The washed guinea pig gastric glands prepared as above were resuspended; from tissue; host or cells: guinea pig gastric mucosal glands (male Hartley)
T2 sequence (H0VZC5 1-426): T1 sequence (H0VZC5 1-426)

[3] = IC50 ^125 I-Gastrin Gastric Glands
[4] = ^125 I-gastrin, read-out: IC50 ^125 I-Gastrin Gastric Glands
[5] = read-out: IC50 ^125 I-CCK Brain

| SMILES | pIC50 ([1]; IC50 ^125 I-CCK Brain) | pIC50 [2, 3] | pIC50 [2, 4] | pIC50 [1, 5] |
| --- | --- | --- | --- | --- |
| O=C(NC1N=C(c2ccccc2F)c2ccccc2NC1=O)c1cc2cc(F)ccc2[nH]1 (racemic) [Example 114, 1,3-Dihydro-3-(RS)-(5-fluoroindole-2-carbonylamino)-5-(2-fluorophenyl)-2H-1,4-benzodiazepin-2-one] | 4.92 | 5.32 | – | – |
| O=C(NC1N=C(c2ccccc2F)c2ccccc2NC1=O)c1ccc(C(F)(F)F)cc1 (racemic) [Example 134, 1,3-Dihydro-5-(2-fluorophenyl)-3-(RS)-(p-trifluoro-methylbenzoylamino)-2H-1,4-benzodiazepin-2-one] | 4.40 | 5.02 | – | – |
| CN1C(=O)[C@@H](NC(=O)c2ccccc2Br)N=C(c2ccccc2F)c2ccccc21 [Example 161, 3(S)-(-)-3-(2-Bromobenzoylamino)-1,3-dihydro-5-(2-fluorophenyl)-1-methyl-2H-1,4-benzodiazepin-2-one] | 4.15 | – | 4.72 | – |
| O=C(NC1N=C(c2ccccc2)c2ccccc2NC1=O)c1ccc(O)cc1 (racemic) [Example 148, 1-3-Dihydro-3-(RS)-(p-Hydroxybenzoylamino)-5-phenyl-2H-1,4-benzodiazepin-2-one] | 4.00 | 4.51 | – | – |
| CN1C(=O)[C@@H](NC(=O)C=Cc2ccccc2)N=C(c2ccccc2)c2ccccc21 [Example 192, (S)-N-(2,3-Dihydro-1-methyl-2-oxo-5-phenyl-1H-1,4-benzodiazeoin-3-yl)-3-phenyl-2-propenamide] | – | – | 6.74 | 6.19 |
| CC(C)(C)c1ccc(C(=O)NC2N=C(c3ccccc3)c3ccccc3NC2=O)cc1 (racemic) [Example 146, 1,3-Dihydro-3-(RS)-(4'-tert-butylbenzoylamino)-5-phenyl-2H-1,4-benzodiazepin-2-one] | 4.00 | 4.40 | – | – |
| CCOC(=O)CN1C(=O)C(NC(=O)c2ccc(Cl)cc2)N=C(c2ccccc2F)c2ccccc21 (racemic) [Example 129, 1-Ethoxycarbonylmethyl-1,3-dihydro-3(RS)-(4-chloro-phenylcarbonyl)amino-5-(2-fluorophenyl)-2H-1,4-benzodiazepin-2-one] | 5.72 | 6.16 | – | – |
| CN1C(=O)C(N(C)C(=O)c2ccccc2Cl)N=C(c2ccccc2)c2ccccc21 (racemic) [Example 138, 3-(RS)-(N-(o-Chlorobenzoyl)-N-methylamino)-1,3-dihydro-1-methyl-5-phenyl-2H-1,4-benzodiazepin-2-one] | 4.00 | < 4.00 | – | – |
| COc1ccc(C(=O)NC2N=C(c3ccccc3F)c3ccccc3NC2=O)cc1 (racemic) [Example 136, 1,3-Dihydro-5-(2-fluorophenyl)-3-(RS)-(p-methoxybenzoylamino)-2H-1,4-benzodiazepin-2-one] | < 4.40 | 5.27 | – | – |
| CN1C(=O)[C@H](NC(=O)[C@@H](N)Cc2ccccc2)N=C(c2ccccc2)c2ccccc21 [Example 84b, 3(R)-(2(S)-amino-3-phenylpropanoylamino)-1,3-dihydro-1-methyl-5-phenyl-2H-1,4-benzodiazepin-2-one] | < 4.00 | – | 4.26 | – |
| O=C(Cc1cccc2sccc12)NC1N=C(c2ccccc2F)c2ccccc2NC1=O (racemic) [Example 110, 1,3-Dihydro-3-(RS)-(4-thianaPhtheneacetyl)amino-5-(2-fluorophenyl)-2H-1,4-benzodiazepin-2-one] | 5.48 | 5.41 | – | – |
| CN1C(=O)[C@@H](NC(=O)[C@@H](Cc2ccccc2)NC(=O)OC(C)(C)C)N=C(c2ccccc2F)c2ccccc21 [Example 232, (S-(R*,S*))-(2-((5-(2-Fluorophenyl)-2,3-dihydro-1-methyl-2-oxo-1H-1,4-benzodiazepin-3-yl)amino)-2-oxo-1-(phenylmethyl)ethyl)-carbamic acid 1,1-dimethylethyl ester] | – | – | 5.92 | 6.00 |
| O=C(NC1N=C(c2ccccc2)c2ccccc2NC1=O)c1ccc(F)cc1 (racemic) [Example 144, 1-3-Dihydro-3-(RS)-(4'-fluorobenzoylamino)-5-phenyl-2H-1,4-benzodiazeoin-2-one] | 4.37 | 5.03 | – | – |
| N[C@@H](Cc1ccccc1)C(=O)NC1N=C(c2ccccc2)c2ccccc2NC1=O (single isomer, unassigned) [Example 186] | – | – | < 4.00 | < 4.00 |
| CN1C(=O)C(NC(=O)c2ccc(Cl)cc2)N=C(c2ccccc2F)c2ccccc21 (racemic) [Example 80, 1,3-Dihydro-1-methyl-3(RS)-(4-chlorophenylcarbonyl)-amino-5-(2-fluoroohenyl)-2H-1,4-benzodiazeoin-2-one] | 5.47 | – | 5.54 | – |
| O=C(Cc1c[nH]c2ccccc12)NC1N=C(c2ccccc2)c2ccccc2NC1=O (racemic) [Example 76, 3(RS)-(3-indoleacetylamino)-1,3-dihydro-5-phenyl-2H-1,4-benzodiazepin-2-one] | 4.96 | 4.49 | – | – |
| O=C(NC1N=C(c2ccccc2F)c2ccccc2NC1=O)c1ccccc1 (racemic) [Example 173, 1,3-Dihydro-5-(2-fluorophenyl)-3(RS)-phenylcarbonylamino-2H-1,4-benzodiazepin-2-one] | < 4.40 | 4.55 | – | – |
| O=C(O)CN1C(=O)C(NC(=O)c2ccc(Cl)cc2)N=C(c2ccccc2F)c2ccccc21 (racemic) [Example 132, 1-Carboxymethyl-1,3-dihydro-3-(RS)-(4-chlorophenyl-carbonyl)amino-5-(2-fluorophenyl)-2H-1,4-benzodiazepin-2-one] | < 4.00 | 5.09 | – | – |
| CCOC(=O)CN1C(=O)C(NC(=O)c2ccccc2Cl)N=C(c2ccccc2F)c2ccccc21 (stereo not drawn) [Example 188, 3-(2'-Chlorobenzoylamino)-1-ethoxycarbonylmethyl-5-(2'-fluorophenyl)-2H-1,4-benzodiazepine-2-one] | 5.49 | 5.89 | – | – |
| CN1C(=O)[C@H](NC(=O)C2CCCCC2)N=C(c2ccccc2)c2ccccc21 [Example 198, (R)-N-(2,3-Dihydro-1-methyl-2-oxo-5-phenyl-1H-1,4-benzodiazepin-3-yl)-cyclohexanecarboxamide] | – | – | 5.82 | 4.74 |
| O=C(CCc1c[nH]c2ccccc12)NC1N=C(c2ccccc2)c2ccccc2NC1=O (racemic) [Example 75, 3(RS)-[3-(3-indolyl)propionylamino]-1,3-dihydro-5-phenyl-2H-1,4-benzodiazepin-2-one] | 4.00 | 5.33 | – | – |
| COc1ccc(C(=O)NC2N=C(c3ccccc3F)c3ccccc3NC2=O)cc1OC (racemic) [Example 153, 1,3-Dihydro-3(RS)-(3,4-dimethoxybenzoylamino)-5-(2-fluorophenyl)-2H-1,4-benzodiazepin-2-one] | < 4.40 | < 4.40 | – | – |
| O=C(NC1N=C(c2ccccc2F)c2ccccc2NC1=O)c1cc2ccccc2[nH]1 (racemic) [Example 105, 1,3-Dihydro-5-(2-fluorophenyl)-3-(RS)-(2-indolecarbonylamino)-2H-1,4-benzodiazeoin-2-one] | 5.52 | 5.34 | – | – |
| O=C(NC1N=C(c2ccccc2)c2ccccc2NC1=O)c1cccc(SC(F)(F)F)c1 (racemic) [Example 155, 1,3-Dihydro-5-phenyl-3(RS)-(3-trifluoromethylthiobenzoylamino)-2H-1,4-benzodiazepin-2-one] | < 4.00 | 3.89 | – | – |
| CSc1ccc(C(=O)NC2N=C(c3ccccc3)c3ccccc3NC2=O)cc1 (racemic) [Example 143, 1,3-Dihydro-5-Phenyl-3-(RS)-(4'-methylthiobenzoylamino)-2H-1,4-benzodiazepin-2-one] | 4.64 | 5.10 | – | – |
| O=C(NC1N=C(c2ccccc2)c2ccccc2NC1=O)c1cc2ccccc2[nH]1 (racemic) [Example 73, 3(RS)-1,3-Dihydro-(2-indolecarbonylamino)-5-phenyl-2H-1,4-benzodiazepin-2-one] | 5.10 | 5.40 | – | – |
| O=C(NCC1N=C(c2ccccc2F)c2ccccc2NC1=O)OCc1ccccc1 (racemic) [Example 66, 1,3-Dihydro-5-(2'-fluorophenyl)-3(RS)-(benzyloxycarbonyl)aminomethyl-2H-1,4-benzodiazepin-2-one] | 4.00 | 5.13 | – | – |
